Values of other authors in patent US9884123B2, “Ligand-targeted molecules and methods thereof” (INVICTUS ONCOLOGY PVT. LTD., priority 2012, dated 2018).
Like-named read-outs stand apart in the source and are kept apart here.

How the values were obtained:
[1] = test system not given
[2] = Table 1, order of magnitude in words

Compound | Remarks: active against MDR cells too (MDR cells) | IC50 [1, 2] | IC50 ([1]; Table 1, numeric value, read-out: IC50) [nM]
Epothilones A and B | Active |  | 
Calicheamicins |  | Picomolar | 
COc1cccc2c1C(=O)c1c(O)c3c(c(O)c1C2=O)C[C@@](O)(C(=O)CO)C[C@@H]3O[C@H]1C[C@H](N)[C@H](O)[C@H](C)O1 [Doxorubucin] |  | High nM | 
Maytansinoid [Maytansinoid (DM1 and DM4)] |  | nM to | 
COc1c(O)c2c(c3cc(C(=O)N4CCc5c4c(O)c(OC)c4[nH]c(C(=O)N6CC7CC78C6=CC(=O)c6[nH]cc(C)c68)cc54)[nH]c13)CCN2C(N)=O (stereo not shown) [CC-1065] |  | nM to | 
CC(=O)O[C@@H](C)/C=C\C(=O)N[C@@H]1C[C@H](C)[C@H](C/C=C(C)/C=C/[C@H]2OC(C)(C)C[C@@]3(CO3)[C@@H]2O)O[C@@H]1C [Meamycin] | Active | picomolar | 
Cc1c[nH]c2c1[C@@]13C[C@@H]1CN(C(=O)c1cc4cc(NC(=O)c5cc6ccccc6o5)ccc4[nH]1)C3=CC2=O [Adozelesin (DC1), Adozelesin] |  |  | 0.02
COc1cc([C@@H]2c3cc4c(cc3[C@@H](O[C@@H]3O[C@@H]5CO[C@@H](c6cccs6)O[C@H]5[C@H](O)[C@H]3O)[C@H]3COC(=O)[C@H]23)OCO4)cc(OC)c1O [Teniposide] |  | Low nM | 
CC[C@@H](/C=C(/C)[C@H]1C[C@H](OC)C[C@@H](O)C(C)(C)[C@]2(O)O[C@H](C[C@H](OC)[C@@H](O)C(=O)O1)C[C@H](OC)[C@@H]2O)CO [Peloruside A] |  | Low nM | 
C=C1C[C@H](C)C[C@@H]2CC=C[C@@H](C/C=C\C(=O)O[C@H]([C@@H](O)/C=C/[C@@H]3CC(C)=CCO3)C[C@@H]3O[C@H]3[C@@H](O)C1)O2 [Laulimalide] |  | Low nM | 
CCCCCCC[C@H](O)CC[C@H](O)[C@H]1CC[C@H]([C@H]2CC[C@H]([C@H](O)CCCCCCCCCC[C@@H](O)CC3=C[C@H](C)OC3=O)O2)O1 [27-hydroxybullatacin] |  | Low pM | 
Auristatins E and F |  | nM to | 
